Earlier results in EP1707213A1, “Herbal composition for the treatment of cutaneous Erythema” (Kern, Elisabeth, priority 2005, dated 2006).
Read-outs that look alike come from different tables or passages of the source.

Tests used:
[1] = test system: durch Doxil induziertes Hand-Fuß-Syndrom; conditions: patients with hand-foot syndrome of Grade 2 bis 4 under Doxil

For `CCCCCOC(=O)Nc1nc(=O)n([C@@H]2O[C@H](C)[C@@H](O)[C@H]2O)cc1F` [Capecitabin, N4-Pentyloxycarbonyl-5'desoxy-Fluorocytidin], the “palmoplantare Erythrodysästhesie als häufigste Nebenwirkung” value (Patienten; in vivo) is given as 50 % der Patienten.
In the case of `C[C@@H]1C[C@H]2[C@@H]3CCC4=CC(=O)C=C[C@]4(C)[C@@]3(F)[C@@H](O)C[C@]2(C)[C@@]1(O)C(=O)CO` [Dexamethason], the “Fortführung der Chemotherapie mit der ursprünglichen Dosierung von Doxil” value [1] is given as “möglich”.
In the case of `O=c1[nH]cc(F)c(=O)[nH]1` [Zusammensetzung 5-FU, 5-Fluorouracil], the “palmoplantare Erythrodysästhesie als häufigste Nebenwirkung” value (Patienten; use as cytostatic) is listed as 50 % der Patienten.
